ChEMBL document CHEMBL5723582, “Data for DCP probe T-10430” (2024)

Tests used:
[1] = target: Type-1 angiotensin II receptor (Homo sapiens, UniProt P30556); assay: IP-One assay (AGTR1), agonist mode at up to 50 µM; type: functional; parameters: compound concentration < 50 uM
[2] = target: Adenosine receptor A3 (Homo sapiens) (UniProt P0DMS8); assay: RLU of ADORA3 at 1.0 µM in the […] PRESTO-Tango GPCRome screen; details: Compound concentration 1.0 uM
[3] = target: Beta-1 adrenergic receptor (Homo sapiens) (UniProt P08588); assay: RLU of ADRB1 at 1.0 µM in the […] PRESTO-Tango GPCRome screen; details: Compound concentration 1.0 uM
[4] = target: Cholecystokinin receptor type A (Homo sapiens) (UniProt P32238); assay: RLU of CCKAR at 1.0 µM in the […] PRESTO-Tango GPCRome screen; details: Compound concentration 1.0 uM
[5] = target: C-C chemokine receptor type 6 (Homo sapiens) (UniProt P51684); assay: RLU of CCR6 at 1.0 µM in the […] PRESTO-Tango GPCRome screen; details: Compound concentration 1.0 uM
[6] = target: C-C chemokine receptor type 7 (Homo sapiens) (UniProt P32248); assay: RLU of CCR7 at 1.0 µM in the […] PRESTO-Tango GPCRome screen; details: Compound concentration 1.0 uM
[7] = target: Muscarinic acetylcholine receptor M4 (Homo sapiens) (UniProt P08173); assay: RLU of CHRM4 at 1.0 µM in the […] PRESTO-Tango GPCRome screen; details: Compound concentration 1.0 uM
[8] = target: Muscarinic acetylcholine receptor M5 (Homo sapiens) (UniProt P08912); assay: RLU of CHRM5 at 1.0 µM in the […] PRESTO-Tango GPCRome screen; details: Compound concentration 1.0 uM
[9] = target: Corticotropin-releasing factor receptor 2 (Homo sapiens) (UniProt Q13324); assay: RLU of CRHR2 at 1.0 µM in the […] PRESTO-Tango GPCRome screen; details: Compound concentration 1.0 uM
[10] = target: CX3C chemokine receptor 1 (Homo sapiens) (UniProt P49238); assay: RLU of CX3C1 at 1.0 µM in the […] PRESTO-Tango GPCRome screen; details: Compound concentration 1.0 uM
[11] = target: Proteinase-activated receptor 1 (Homo sapiens) (UniProt P25116); assay: RLU of F2R at 1.0 µM in the […] PRESTO-Tango GPCRome screen; details: Compound concentration 1.0 uM
[12] = target: Gamma-aminobutyric acid type B receptor subunit 1 (Homo sapiens) (UniProt Q9UBS5); assay: RLU of GABBR1 at 1.0 µM in the […] PRESTO-Tango GPCRome screen; details: Compound concentration 1.0 uM
[13] = target: G-protein coupled bile acid receptor 1 (Homo sapiens) (UniProt Q8TDU6); assay: RLU of GPBA at 1.0 µM in the […] PRESTO-Tango GPCRome screen; details: Compound concentration 1.0 uM
[14] = target: Adhesion G-protein coupled receptor G5 (Homo sapiens) (UniProt Q8IZF4); assay: RLU of GPR114 at 1.0 µM in the […] PRESTO-Tango GPCRome screen; details: Compound concentration 1.0 uM
[15] = target: G-protein coupled receptor 143 (Homo sapiens) (UniProt P51810); assay: RLU of GPR143 at 1.0 µM in the […] PRESTO-Tango GPCRome screen; details: Compound concentration 1.0 uM
[16] = target: G-protein coupled receptor 146 (Homo sapiens) (UniProt Q96CH1); assay: RLU of GPR146 at 1.0 µM in the […] PRESTO-Tango GPCRome screen; details: Compound concentration 1.0 uM
[17] = target: Probable G-protein coupled receptor 156 (Homo sapiens) (UniProt Q8NFN8); assay: RLU of GPR156 at 1.0 µM in the […] PRESTO-Tango GPCRome screen; details: Compound concentration 1.0 uM
[18] = target: G-protein coupled receptor 26 (Homo sapiens) (UniProt Q8NDV2); assay: RLU of GPR26 at 1.0 µM in the […] PRESTO-Tango GPCRome screen; details: Compound concentration 1.0 uM
[19] = target: Prosaposin receptor GPR37 (Homo sapiens) (UniProt O15354); assay: RLU of GPR37 at 1.0 µM in the […] PRESTO-Tango GPCRome screen; details: Compound concentration 1.0 uM
[20] = target: Melatonin-related receptor (Homo sapiens) (UniProt Q13585); assay: RLU of GPR50 at 1.0 µM in the […] PRESTO-Tango GPCRome screen; details: Compound concentration 1.0 uM
[21] = target: G-protein coupled receptor 61 (Homo sapiens) (UniProt Q9BZJ8); assay: RLU of GPR61 at 1.0 µM in the […] PRESTO-Tango GPCRome screen; details: Compound concentration 1.0 uM
[22] = target: Probable G-protein coupled receptor 82 (Homo sapiens) (UniProt Q96P67); assay: RLU of GPR82 at 1.0 µM in the […] PRESTO-Tango GPCRome screen; details: Compound concentration 1.0 uM
[23] = target: Adhesion G protein-coupled receptor G3 (Homo sapiens) (UniProt Q86Y34); assay: RLU of GPR97 at 1.0 µM in the […] PRESTO-Tango GPCRome screen; details: Compound concentration 1.0 uM
[24] = target: 5-hydroxytryptamine receptor 2C (Homo sapiens) (UniProt P28335); assay: RLU of HTR2C at 1.0 µM in the […] PRESTO-Tango GPCRome screen; details: Compound concentration 1.0 uM
[25] = target: 5-hydroxytryptamine receptor 4 (Homo sapiens) (UniProt Q13639); assay: RLU of HTR4 at 1.0 µM in the […] PRESTO-Tango GPCRome screen; details: Compound concentration 1.0 uM
[26] = target: KiSS-1 receptor (Homo sapiens) (UniProt Q969F8); assay: RLU of KISSPEPTIN at 1.0 µM in the […] PRESTO-Tango GPCRome screen; details: Compound concentration 1.0 uM
[27] = target: Melanin-concentrating hormone receptor 2 (Homo sapiens) (UniProt Q969V1); assay: RLU of MCHR2 at 1.0 µM in the […] PRESTO-Tango GPCRome screen; details: Compound concentration 1.0 uM
[28] = target: Neuromedin-U receptor 1 (Homo sapiens) (UniProt Q9HB89); assay: RLU of NMUR1 at 1.0 µM in the […] PRESTO-Tango GPCRome screen; details: Compound concentration 1.0 uM
[29] = target: Neuropeptide Y receptor type 5 (Homo sapiens) (UniProt Q15761); assay: RLU of NPY5R at 1.0 µM in the […] PRESTO-Tango GPCRome screen; details: Compound concentration 1.0 uM
[30] = target: Neurotensin receptor type 1 (Homo sapiens) (UniProt P30989); assay: RLU of NTSR1 at 1.0 µM in the […] PRESTO-Tango GPCRome screen; details: Compound concentration 1.0 uM
[31] = target: P2Y purinoceptor 2 (Homo sapiens) (UniProt P41231); assay: RLU of P2RY2 at 1.0 µM in the […] PRESTO-Tango GPCRome screen; details: Compound concentration 1.0 uM
[32] = target: Relaxin receptor 2 (Homo sapiens) (UniProt Q8WXD0); assay: RLU of RXFP2 at 1.0 µM in the […] PRESTO-Tango GPCRome screen; details: Compound concentration 1.0 uM
[33] = target: Relaxin-3 receptor 1 (Homo sapiens) (UniProt Q9NSD7); assay: RLU of RXFP3 at 1.0 µM in the […] PRESTO-Tango GPCRome screen; details: Compound concentration 1.0 uM
[34] = target: Sphingosine 1-phosphate receptor 2 (Homo sapiens) (UniProt O95136); assay: RLU of S1PR2 at 1.0 µM in the […] PRESTO-Tango GPCRome screen; details: Compound concentration 1.0 uM
[35] = target: Somatostatin receptor type 5 (Homo sapiens) (UniProt P35346); assay: RLU of SSTR5 at 1.0 µM in the […] PRESTO-Tango GPCRome screen; details: Compound concentration 1.0 uM
[36] = target: Trace amine-associated receptor 1 (Homo sapiens) (UniProt Q96RJ0); assay: RLU of TA1 at 1.0 µM in the […] PRESTO-Tango GPCRome screen; details: Compound concentration 1.0 uM

Chain of Type-1 angiotensin II receptor (P30556 whole entry): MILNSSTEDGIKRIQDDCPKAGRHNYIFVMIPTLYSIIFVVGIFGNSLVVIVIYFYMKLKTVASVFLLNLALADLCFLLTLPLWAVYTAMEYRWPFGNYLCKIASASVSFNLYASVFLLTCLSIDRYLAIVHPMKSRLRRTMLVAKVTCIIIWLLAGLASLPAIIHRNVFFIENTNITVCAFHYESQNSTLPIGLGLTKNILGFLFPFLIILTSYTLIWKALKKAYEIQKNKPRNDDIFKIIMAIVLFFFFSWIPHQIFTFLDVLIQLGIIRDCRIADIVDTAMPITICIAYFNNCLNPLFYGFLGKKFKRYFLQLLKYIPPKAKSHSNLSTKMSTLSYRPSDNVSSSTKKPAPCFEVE
Chain of Relaxin receptor 2 (Homo sapiens) (Q8WXD0 whole entry): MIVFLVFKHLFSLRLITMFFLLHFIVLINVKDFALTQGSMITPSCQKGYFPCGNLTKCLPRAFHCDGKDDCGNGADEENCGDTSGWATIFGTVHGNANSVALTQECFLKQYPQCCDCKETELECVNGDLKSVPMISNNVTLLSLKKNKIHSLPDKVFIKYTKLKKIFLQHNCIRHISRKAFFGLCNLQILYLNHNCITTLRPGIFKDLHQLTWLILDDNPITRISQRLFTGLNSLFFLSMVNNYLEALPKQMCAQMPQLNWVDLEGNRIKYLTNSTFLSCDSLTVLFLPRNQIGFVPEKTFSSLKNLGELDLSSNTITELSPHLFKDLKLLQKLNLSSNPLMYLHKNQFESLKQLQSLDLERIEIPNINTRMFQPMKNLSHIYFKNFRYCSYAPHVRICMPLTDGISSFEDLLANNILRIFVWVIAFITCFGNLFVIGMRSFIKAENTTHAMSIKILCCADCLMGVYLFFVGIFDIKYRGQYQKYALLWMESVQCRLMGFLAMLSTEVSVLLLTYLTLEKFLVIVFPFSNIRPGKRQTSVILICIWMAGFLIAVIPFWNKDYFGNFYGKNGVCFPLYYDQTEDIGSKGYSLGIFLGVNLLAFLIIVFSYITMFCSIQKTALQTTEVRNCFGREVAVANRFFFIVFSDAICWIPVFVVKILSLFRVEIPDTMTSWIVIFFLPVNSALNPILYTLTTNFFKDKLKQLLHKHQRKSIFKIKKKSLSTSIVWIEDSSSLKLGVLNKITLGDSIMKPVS
Chain of P2Y purinoceptor 2 (Homo sapiens) (P41231 whole entry): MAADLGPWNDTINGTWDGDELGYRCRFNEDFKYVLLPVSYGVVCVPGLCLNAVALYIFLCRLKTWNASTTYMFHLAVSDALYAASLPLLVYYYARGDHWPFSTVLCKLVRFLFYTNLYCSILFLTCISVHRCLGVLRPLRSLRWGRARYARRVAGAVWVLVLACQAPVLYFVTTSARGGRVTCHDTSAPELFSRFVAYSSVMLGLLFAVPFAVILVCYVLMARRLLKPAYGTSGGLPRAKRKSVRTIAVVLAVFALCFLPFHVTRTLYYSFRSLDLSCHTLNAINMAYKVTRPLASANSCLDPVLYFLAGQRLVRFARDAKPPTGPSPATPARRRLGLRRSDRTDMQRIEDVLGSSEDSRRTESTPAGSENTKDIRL
Chain of CX3C chemokine receptor 1 (Homo sapiens) (P49238 whole entry): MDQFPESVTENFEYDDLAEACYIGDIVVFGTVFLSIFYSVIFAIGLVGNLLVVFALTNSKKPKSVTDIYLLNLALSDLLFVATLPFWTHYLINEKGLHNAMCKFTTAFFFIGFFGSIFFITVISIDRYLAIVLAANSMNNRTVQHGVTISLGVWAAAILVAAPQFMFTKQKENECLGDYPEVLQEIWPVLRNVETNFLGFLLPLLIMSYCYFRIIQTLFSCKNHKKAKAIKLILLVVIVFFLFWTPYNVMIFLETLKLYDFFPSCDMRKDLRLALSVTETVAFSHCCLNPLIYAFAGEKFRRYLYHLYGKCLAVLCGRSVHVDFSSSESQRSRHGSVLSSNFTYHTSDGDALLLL
Chain of Muscarinic acetylcholine receptor M4 (Homo sapiens) (P08173 whole entry): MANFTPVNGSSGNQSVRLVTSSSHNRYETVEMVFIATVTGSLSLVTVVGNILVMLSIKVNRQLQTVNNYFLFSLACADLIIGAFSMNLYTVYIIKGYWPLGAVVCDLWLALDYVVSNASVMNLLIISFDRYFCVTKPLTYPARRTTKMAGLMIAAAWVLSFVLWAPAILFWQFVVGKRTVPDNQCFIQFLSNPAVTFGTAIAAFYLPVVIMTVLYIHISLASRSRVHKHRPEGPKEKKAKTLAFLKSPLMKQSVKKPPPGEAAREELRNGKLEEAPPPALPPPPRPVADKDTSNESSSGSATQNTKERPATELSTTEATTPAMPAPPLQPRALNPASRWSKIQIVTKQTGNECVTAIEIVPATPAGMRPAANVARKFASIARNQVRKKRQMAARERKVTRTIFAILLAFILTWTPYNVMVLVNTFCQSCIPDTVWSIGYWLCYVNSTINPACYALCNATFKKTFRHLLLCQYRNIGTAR
Chain of Adhesion G protein-coupled receptor G3 (Homo sapiens) (Q86Y34 whole entry): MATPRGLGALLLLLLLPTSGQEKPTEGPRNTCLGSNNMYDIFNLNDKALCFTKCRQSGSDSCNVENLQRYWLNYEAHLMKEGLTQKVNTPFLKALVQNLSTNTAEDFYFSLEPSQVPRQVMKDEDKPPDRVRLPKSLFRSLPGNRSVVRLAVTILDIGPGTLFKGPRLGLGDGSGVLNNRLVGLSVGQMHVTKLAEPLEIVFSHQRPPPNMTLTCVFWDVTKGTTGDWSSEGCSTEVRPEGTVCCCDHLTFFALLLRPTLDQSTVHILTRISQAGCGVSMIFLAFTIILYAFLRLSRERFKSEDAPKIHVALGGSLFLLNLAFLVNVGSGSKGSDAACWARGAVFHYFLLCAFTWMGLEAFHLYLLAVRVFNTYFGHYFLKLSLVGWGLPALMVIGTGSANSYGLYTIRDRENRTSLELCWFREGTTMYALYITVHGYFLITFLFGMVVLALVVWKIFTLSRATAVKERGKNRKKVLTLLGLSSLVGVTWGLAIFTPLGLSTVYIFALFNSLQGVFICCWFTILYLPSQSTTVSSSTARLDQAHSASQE
Chain of 5-hydroxytryptamine receptor 2C (Homo sapiens) (P28335 whole entry): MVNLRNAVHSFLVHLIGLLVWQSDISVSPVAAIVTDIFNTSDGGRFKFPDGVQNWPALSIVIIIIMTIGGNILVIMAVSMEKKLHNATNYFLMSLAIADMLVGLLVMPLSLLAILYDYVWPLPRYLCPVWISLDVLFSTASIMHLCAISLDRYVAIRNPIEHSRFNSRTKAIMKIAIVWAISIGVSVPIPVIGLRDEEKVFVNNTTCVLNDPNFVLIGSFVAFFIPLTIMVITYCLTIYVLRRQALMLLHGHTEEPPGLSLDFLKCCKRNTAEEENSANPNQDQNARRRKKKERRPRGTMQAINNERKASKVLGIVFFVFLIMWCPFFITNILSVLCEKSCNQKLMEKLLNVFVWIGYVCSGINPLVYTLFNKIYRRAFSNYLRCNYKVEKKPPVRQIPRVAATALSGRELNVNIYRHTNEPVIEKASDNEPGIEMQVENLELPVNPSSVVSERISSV
Chain of Adhesion G-protein coupled receptor G5 (Homo sapiens) (Q8IZF4 whole entry): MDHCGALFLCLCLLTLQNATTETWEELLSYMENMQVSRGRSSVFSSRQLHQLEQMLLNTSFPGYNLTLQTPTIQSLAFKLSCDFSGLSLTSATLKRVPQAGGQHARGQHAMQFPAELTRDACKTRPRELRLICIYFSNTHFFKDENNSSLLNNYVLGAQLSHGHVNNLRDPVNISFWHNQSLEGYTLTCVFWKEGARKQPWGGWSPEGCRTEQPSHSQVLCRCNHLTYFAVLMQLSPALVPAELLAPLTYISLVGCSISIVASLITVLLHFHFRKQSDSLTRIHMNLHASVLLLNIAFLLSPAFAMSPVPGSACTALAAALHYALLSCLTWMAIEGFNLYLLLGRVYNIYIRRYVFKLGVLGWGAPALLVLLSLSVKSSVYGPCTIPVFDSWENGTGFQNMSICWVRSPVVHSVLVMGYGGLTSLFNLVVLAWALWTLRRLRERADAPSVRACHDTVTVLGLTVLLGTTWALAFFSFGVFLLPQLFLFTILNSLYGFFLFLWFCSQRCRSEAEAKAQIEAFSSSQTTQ
Chain of Melatonin-related receptor (Homo sapiens) (Q13585 whole entry): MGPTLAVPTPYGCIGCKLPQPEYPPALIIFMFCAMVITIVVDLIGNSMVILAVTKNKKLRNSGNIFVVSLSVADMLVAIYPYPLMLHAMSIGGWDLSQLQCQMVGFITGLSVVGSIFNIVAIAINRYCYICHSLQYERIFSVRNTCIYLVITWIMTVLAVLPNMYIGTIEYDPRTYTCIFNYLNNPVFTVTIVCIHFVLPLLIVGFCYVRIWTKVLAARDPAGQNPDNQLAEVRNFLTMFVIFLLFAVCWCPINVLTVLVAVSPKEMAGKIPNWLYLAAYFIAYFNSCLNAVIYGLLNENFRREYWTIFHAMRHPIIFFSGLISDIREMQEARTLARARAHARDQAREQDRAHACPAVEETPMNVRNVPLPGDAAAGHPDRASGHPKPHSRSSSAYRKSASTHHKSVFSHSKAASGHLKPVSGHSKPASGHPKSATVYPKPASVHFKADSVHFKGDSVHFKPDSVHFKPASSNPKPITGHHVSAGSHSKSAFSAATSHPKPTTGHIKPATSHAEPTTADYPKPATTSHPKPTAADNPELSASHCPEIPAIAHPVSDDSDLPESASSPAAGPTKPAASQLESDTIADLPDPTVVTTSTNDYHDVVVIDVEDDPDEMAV
Chain of Adenosine receptor A3 (Homo sapiens) (P0DMS8 whole entry): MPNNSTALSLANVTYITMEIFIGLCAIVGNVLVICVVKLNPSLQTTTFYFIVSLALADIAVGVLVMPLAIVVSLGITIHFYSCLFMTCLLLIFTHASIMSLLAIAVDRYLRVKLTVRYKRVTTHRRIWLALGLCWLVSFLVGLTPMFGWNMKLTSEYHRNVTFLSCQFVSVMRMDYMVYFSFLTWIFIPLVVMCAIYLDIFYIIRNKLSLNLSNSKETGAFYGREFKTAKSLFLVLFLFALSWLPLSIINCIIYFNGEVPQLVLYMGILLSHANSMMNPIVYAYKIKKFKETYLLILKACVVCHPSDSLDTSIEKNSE

**Q.** `CCCCC(=O)N1CC2(C1)CN(c1ccccc1-c1nnn[nH]1)C2` was tested. Which EC50 [1] did it give?
**A.** Its EC50 is > 50 µM (not active).

**Q.** What about the RLU [2] of the same compound?
**A.** The RLU was 506.

**Q.** What about the RLU [3] of the same compound?
**A.** Its RLU is 19400.

**Q.** What about the RLU [4] of the same compound?
**A.** Its RLU is 2840.

**Q.** What about the RLU [5] of the same compound?
**A.** The RLU was -2060.

**Q.** And the RLU [6]?
**A.** The RLU was 342.

**Q.** And the RLU [7]?
**A.** Its RLU is -838.

**Q.** What about the RLU [8] of the same compound?
**A.** Its RLU is 7390.

**Q.** And the RLU [9]?
**A.** The RLU was 410.

**Q.** And the RLU [10]?
**A.** The RLU was -3290.

**Q.** What about the RLU [11] of the same compound?
**A.** Its RLU is 1350.

**Q.** And the RLU [12]?
**A.** The RLU was 3390.

**Q.** What about the RLU [13] of the same compound?
**A.** The RLU was 275.

**Q.** What about the RLU [14] of the same compound?
**A.** The RLU was 432.

**Q.** What about the RLU [15] of the same compound?
**A.** Its RLU is -2070.

**Q.** What about the RLU [16] of the same compound?
**A.** Its RLU is -1510.

**Q.** What about the RLU [17] of the same compound?
**A.** Its RLU is 1540.

**Q.** What about the RLU [18] of the same compound?
**A.** The RLU was -187.

**Q.** And the RLU [19]?
**A.** The RLU was -1510.

**Q.** And the RLU [20]?
**A.** The RLU was 435000.

**Q.** And the RLU [21]?
**A.** The RLU was 1400.

**Q.** What about the RLU [22] of the same compound?
**A.** Its RLU is -8050.

**Q.** What about the RLU [23] of the same compound?
**A.** Its RLU is 2050.

**Q.** What about the RLU [24] of the same compound?
**A.** Its RLU is 1050.

**Q.** And the RLU [25]?
**A.** The RLU was -2330.

**Q.** And the RLU [26]?
**A.** Its RLU is 2040.

**Q.** What about the RLU [27] of the same compound?
**A.** The RLU was 1.74.

**Q.** And the RLU [28]?
**A.** Its RLU is 1950.

**Q.** And the RLU [29]?
**A.** The RLU was -14500.

**Q.** And the RLU [30]?
**A.** Its RLU is -1300.

**Q.** What about the RLU [31] of the same compound?
**A.** The RLU was 2250.

**Q.** What about the RLU [32] of the same compound?
**A.** The RLU was -900.

**Q.** And the RLU [33]?
**A.** Its RLU is 6610.

**Q.** What about the RLU [34] of the same compound?
**A.** The RLU was 401.

**Q.** What about the RLU [35] of the same compound?
**A.** Its RLU is -946.

**Q.** What about the RLU [36] of the same compound?
**A.** Its RLU is 127.
